Reference: US9758505B2, “3-(indol-3-yl)-pyridine derivatives, pharmaceutical compositions and methods for use” (ITEOS THERAPEUTICS, priority 2014, dated 2017)
Where a name gives a salt, the structure may show the parent alone.

How the values were obtained:
human TDO2 [1] = target: T1, human TDO2 (Homo sapiens (Human), UniProt P48775); test: Cellular assay for TDO2 activity, hTDO2-overexpressing P815 cells; assay type: cell-based; conditions: murine mastocytoma P815 cells overexpressing hTDO2, overnight incubation, kynurenine in supernatant
T1 sequence (P48775 whole entry): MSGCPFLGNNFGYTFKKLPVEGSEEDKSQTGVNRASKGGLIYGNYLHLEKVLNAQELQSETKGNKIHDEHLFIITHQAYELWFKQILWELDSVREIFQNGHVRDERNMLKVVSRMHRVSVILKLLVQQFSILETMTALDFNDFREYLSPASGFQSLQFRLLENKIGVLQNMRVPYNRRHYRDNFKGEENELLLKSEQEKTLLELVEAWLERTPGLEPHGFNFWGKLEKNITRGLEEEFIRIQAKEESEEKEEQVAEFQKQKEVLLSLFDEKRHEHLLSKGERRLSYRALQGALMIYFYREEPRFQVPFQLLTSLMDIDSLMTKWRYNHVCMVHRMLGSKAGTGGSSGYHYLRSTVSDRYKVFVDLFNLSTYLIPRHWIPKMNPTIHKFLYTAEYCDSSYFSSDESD
Method: The compounds of Formula I inhibit the activity of human TDO2 in cells.
The assay (adapted from Pilotte L et al., Proc Natl Acad Sci USA, 2012, 109(7), 2497-502) was performed in 96-well flat bottom plates seeded with murine mastocytoma P815 cells overexpressing hTDO2 (prepared as described in Pilotte et al., PNAS, 2012, 109(7), 2497-2502), at a concentration of 5×10^4 cells/well in a final volume of 200 μL. To determine TDO or IDO activity, the cells were incubated overnight at 37° C. at 5% CO2 in IMDM (Invitrogen) supplemented with 2% FBS and 2% penicillin/streptomycin in the presence of the compounds of the present invention, at different concentrations. The cells may be obtained from the American Type Cuylture Collecion [ATCC® TIB-64™ or commercially, e.g., from Sigma-Aldrich or Life Technologies.]
(§1) The plates were then centrifuged 5 min at 1000 rpm, and 100 μL of the supernatant were collected in a conical plate, 30 uL of TCA 30% were added and a further centrifugated at 3000×g for 10 minutes. 100 μL of the supernatant were collected in a flat bottomed plate and 100 μL of 2% (w/v) 4-(dimethylamino)-benzaldehyde in acetic acid and incubated for 5 min at room temperature. Kynurenine concentrations were determined by measuring the absorbance at 480 nm. A standard curve was made with pure kynurenine. The TDO activity was measured as described above using ten serial concentrations of the compounds of the present invention. Data were fitted using the Prism™ software (GraphPad Software, Inc.) using standard software configurations.

human TDO2 [2] = target: T1, human TDO2; test: Assay for TDO2 enzymatic activity determination; assay type: biochemical; conditions: human recombinant TDO2, L-Trp 1 mM, kynurenine absorbance at 480 nm
Method: The compounds of formula I inhibit the enzymatic activity of human TDO2.
To measure the TDO2 activity, the procedure described in Dolusic et al. J. Med. Chem.; 2011, 54, […] was adapted: the reaction mixture contained (final concentrations) potassium phosphate buffer (50 mM, pH 7.5), ascorbic acid (0.25 M), methylene blue (0.125 μM), catalase (40 units/mL, from bovine liver, Sigma), and human recombinant TDO2 enzyme (prepared as described in Dolusic et al. J. Med. Chem.; 2011, 54, 5320-5334; 0.9 μg) without or with the compounds of the present invention at the indicated concentrations (total volume 112.5 μL). The reaction was initiated by the addition of 37.5 μL of L-Trp (final concentration 1 mM) at room temperature. The reaction was conducted at room temperature during one hour and stopped by the addition of 30 μL of 30% (w/v) trichloroacetic acid.
To convert N-formylkynurenine into kynurenine, the reaction mixture was incubated at 65° C. for 30 min. Then 150 μL of the reaction mixture was mixed with 120 μL of 2.5% (w/v) 4-(dimethylamino)-benzaldehyde in acetic acid and incubated for 5 min at room temperature. Kynurenine concentrations were determined by measuring the absorbance at 480 nm. A standard curve was made with pure kynurenine. The TDO activity was measured as described above using ten serial concentrations of the compounds of the present invention. Data were fitted using the Prism™ software (GraphPad Software, Inc.) using standard software configurations.

human TDO2 [3] = target: T1, human TDO2; test: Cellular assay for TDO2 activity, A172 cells naturally expressing hTDO2; assay type: cell-based; conditions: human glioblastoma A172 cells, overnight incubation, kynurenine in supernatant
Method: A172 is a cell line derived from human brain glioblastoma cells.
To determine TDO, the cells were incubated overnight at 37° C. at 5% CO2 in IMDM (Invitrogen) supplemented with 2% FBS and 2% penicillin/streptomycin in the presence of the compounds of the present invention, at different concentrations.
as §1

Structure (SMILES)	IC50 (human TDO2 [1])	IC50 (human TDO2 [2])	IC50 (human TDO2 [3])
CN1CCC(Oc2ccc(-c3c[nH]c4cc(F)ccc34)cn2)CC1 [Example 3, 6-fluoro-3-(6-(1-methylpiperidin-4-yloxy)pyridin-3-yl)-1H-indole]	–	1200 nM	–
CN(C)c1ccc(-c2c[nH]c3cc(F)ccc23)cn1 [Example 7, 5-(6-fluoro-1H-indol-3-yl)-N,N-dimethylpyridin-2-amine]	320 nM	380 nM	–
O=C1NCCN1c1ccc(-c2c[nH]c3cc(F)ccc23)cn1 [Example 78, 1-(5-(6-fluoro-1H-indol-3-yl)pyridin-2-yl)imidazolidin-2-one]	–	16000 nM	490 nM
NCC(=O)NC1CCN(c2ccc(-c3c[nH]c4cc(F)ccc34)cn2)CC1 [Example 13, 2-amino-N-(1-(5-(6-fluoro-1H-indol-3-yl)pyridin-2-yl)piperidin-4-yl)acetamide]	550 nM	1700 nM	–
NS(=O)(=O)CCNc1ccc(-c2c[nH]c3cc(F)ccc23)cn1 [Example 29, 2-((5-(6-fluoro-1H-indol-3-yl)pyridin-2-yl)amino)ethanesulfonamide]	240 nM	–	–
Cc1ccncc1-c1c[nH]c2cc(F)ccc12 [Example 46, 6-fluoro-3-(4-methylpyridin-3-yl)-1H-indole]	670 nM	13000 nM	–
O=C(Nc1ccc(-c2c[nH]c3cc(F)ccc23)cn1)C1CCNCC1 [Example 35, N-(5-(6-fluoro-1H-indol-3-yl)pyridin-2-yl)piperidine-4-carboxamide]	250 nM	–	530 nM
NCC(=O)N1CCN(c2ccc(-c3c[nH]c4cc(F)ccc34)cn2)CC1 [Example 11, 2-amino-1-(4-(5-(6-fluoro-1H-indol-3-yl)pyridin-2-yl)piperazin-1-yl)ethanone]	650 nM	650 nM	–
Cc1ccc(-c2c[nH]c3cc(F)ccc23)cn1 [Example 1, 6-fluoro-3-(6-methylpyridin-3-yl)-1H-indole]	180 nM	370 nM	–
CS(=O)(=O)N1CCC(C(=O)Nc2ccc(-c3c[nH]c4cc(F)ccc34)cn2)CC1 [Example 61, N-(5-(6-fluoro-1H-indol-3-yl)pyridin-2-yl)-1-(methylsulfonyl)piperidine-4-carboxamide]	170 nM	–	990 nM
CS(=O)(=O)CCNc1ccc(-c2c[nH]c3cc(F)ccc23)cn1 [Example 28, 5-(6-fluoro-1H-indol-3-yl)-N-(2-(methylsulfonyl)ethyl)pyridin-2-amine]	1000 nM	1500 nM	–
CS(=O)(=O)N1CCC(Oc2ccc(-c3c[nH]c4cc(F)ccc34)cn2)CC1 [Example 6, 6-fluoro-3-(6-(1-(methylsulfonyl)piperidin-4-yloxy)pyridin-3-yl)-1H-indole]	–	1300 nM	–
CC(=O)N(C)c1ccc(-c2c[nH]c3cc(F)ccc23)cn1 [Example 8, N-(5-(6-fluoro-1H-indol-3-yl)pyridin-2-yl)-N-methylacetamide]	490 nM	–	–
CS(=O)(=O)NCCNc1ccc(-c2c[nH]c3cc(F)ccc23)cn1 [Example 26, N-(2-(5-(6-fluoro-1H-indol-3-yl)pyridin-2-ylamino)ethyl)methanesulfonamide hydrochloride]	–	710 nM	–
Fc1ccc2c(-c3ccc(OC4CCNCC4)nc3)c[nH]c2c1 [Example 2, 6-fluoro-3-(6-(piperidin-4-yloxy)pyridin-3-yl)-1H-indole]	–	560 nM	–
NCC(=O)NCCNc1ccc(-c2c[nH]c3cc(F)ccc23)cn1 [Example 51, 2-amino-N-(2-((5-(6-fluoro-1H-indol-3-yl)pyridin-2-yl)amino)ethyl)acetamide]	850 nM	–	–
CN(C)CCS(=O)(=O)NC1CCN(c2ccc(-c3c[nH]c4cc(F)ccc34)cn2)CC1 [Example 56, 2-(dimethylamino)-N-(1-(5-(6-fluoro-1H-indol-3-yl)pyridin-2-yl)piperidin-4-yl)ethanesulfonamide]	240 nM	–	640 nM
CN(c1ccc(-c2c[nH]c3cc(F)ccc23)cn1)S(C)(=O)=O [Example 54, N-(5-(6-fluoro-1H-indol-3-yl)pyridin-2-yl)-N-methylmethanesulfonamide]	160 nM	–	420 nM
Nc1nc2ccc(-c3ccc(-c4c[nH]c5cc(F)ccc45)cn3)cc2[nH]1 [Example 67, 6-(5-(6-fluoro-1H-indol-3-yl)pyridin-2-yl)-1H-benzo[d]imidazol-2-amine]	–	–	460 nM

Further lines, results first:

IC50 (human TDO2 [1])	IC50 (human TDO2 [2])	IC50 (human TDO2 [3])	Structure (SMILES)
350 nM	–	–	NCC(=O)Nc1ccc(-c2c[nH]c3cc(F)ccc23)cn1 [Example 39, 2-amino-N-(5-(6-fluoro-1H-indol-3-yl)pyridin-2-yl)acetamide]
–	11000 nM	–	[O-][n+]1cccc(-c2c[nH]c3cc(F)ccc23)c1 [Example 49, 3-(6-fluoro-1H-indol-3-yl)pyridine 1-oxide]
120 nM	730 nM	–	COc1ccc(-c2c[nH]c3cc(F)ccc23)cn1 [Example 5, 6-fluoro-3-(6-methoxypyridin-3-yl)-1H-indole]
220 nM	860 nM	–	Cc1ncccc1-c1c[nH]c2cc(F)ccc12 [Example 45, 6-fluoro-3-(2-methylpyridin-3-yl)-1H-indole]
620 nM	4500 nM	–	Cc1cncc(-c2c[nH]c3cc(F)ccc23)c1 [Example 48, 6-fluoro-3-(5-methylpyridin-3-yl)-1H-indole]
130 nM	1100 nM	–	Nc1ccc(-c2c[nH]c3cc(F)ccc23)cn1 [Example 15, 5-(6-fluoro-1H-indol-3-yl)pyridin-2-amine]
–	1600 nM	–	Nc1ccc(-c2c[nH]c3cc(F)c(F)cc23)cn1 [Example 16, 5-(5,6-difluoro-1H-indol-3-yl)pyridin-2-amine]
–	4800 nM	–	CCN1CCC(Nc2ccc(-c3c[nH]c4cc(F)ccc34)cn2)CC1 [Example 18, N-(1-ethylpiperidin-4-yl)-5-(6-fluoro-1H-indol-3-yl)pyridin-2-amine]
–	870 nM	–	CC(=O)NCCCNc1ccc(-c2c[nH]c3cc(F)ccc23)cn1 [Example 20, N-(3-(5-(6-fluoro-1H-indol-3-yl)pyridin-2-ylamino)propyl)acetamide]
450 nM	–	–	C[C@H](N)C(=O)Nc1ccc(-c2c[nH]c3cc(F)ccc23)cn1 [Example 37, (S)-2-amino-N-(5-(6-fluoro-1H-indol-3-yl)pyridin-2-yl)propanamide]
1000 nM	–	–	CC(=O)NCCNc1ccc(-c2c[nH]c3cc(F)ccc23)cn1 [Example 50, N-(2-((5-(6-fluoro-1H-indol-3-yl)pyridin-2-yl)amino)ethyl)acetamide]
290 nM	–	990 nM	NCCS(=O)(=O)NC1CCN(c2ccc(-c3c[nH]c4cc(F)ccc34)cn2)CC1 [Example 55, 2-amino-N-(1-(5-(6-fluoro-1H-indol-3-yl)pyridin-2-yl)piperidin-4-yl)ethanesulfonamide]
120 nM	–	–	O=C(Nc1ccc(-c2c[nH]c3cc(F)ccc23)cn1)C1CC1 [Example 52, N-(5-(6-fluoro-1H-indol-3-yl)pyridin-2-yl)cyclopropanecarboxamide]
–	650 nM	–	CS(=O)(=O)N1CCC(Nc2ccc(-c3c[nH]c4cc(F)ccc34)cn2)CC1 [Example 19, 5-(6-fluoro-1H-indol-3-yl)-N-(1-(methylsulfonyl)piperidin-4-yl)pyridin-2-amine]
430 nM	–	490 nM	NS(=O)(=O)CCCNc1ccc(-c2c[nH]c3cc(F)ccc23)cn1 [Example 23, 3-((5-(6-fluoro-1H-indol-3-yl)pyridin-2-yl)amino)propane-1-sulfonamide]
260 nM	–	370 nM	O=c1ccc(-c2c[nH]c3cc(F)ccc23)c[nH]1 [Example 69, 5-(6-fluoro-1H-indol-3-yl)pyridin-2(1H)-one]
